Experimental data from ChEMBL document CHEMBL2057076, “C-6 aryl substituted 4-quinolone-3-carboxylic acids as inhibitors of hepatitis C virus” (Bioorg Med Chem, 2012).
The source made the active and inactive calls. The rule behind the calls is not given here.

Key:
Hepatitis C virus [1] = experiment: Antiviral activity at Hepatitis C virus genotype 1b infected in human HuH7 cells assessed as inhibition of viral replication at 0.5 uM after 3 days by quantitative RT-PCR analysis; assay type: functional, Hepacivirus hominis; details: Huh-7, 72 h
Hepatitis C virus [2] = experiment: Antiviral activity at Hepatitis C virus genotype 1b infected in human HuH7 cells assessed as inhibition of viral replication at 0.5 uM after 3 days by renilla luciferase reporter gene assay; assay type: functional, Hepacivirus hominis; details: Huh-7, 72 h
[3] = Cytotoxicity against human HuH7 cells assessed as cell viability at 0.5 uM after 3 days by CellTiter Glo assay; assay type: cell-based, Huh-7; details: read-out: Activity
Hepatitis C virus [4] = experiment: Antiviral activity at Hepatitis C virus genotype 1b infected in human HuH7 cells assessed as inhibition of viral replication at 10 uM after 3 days by renilla luciferase reporter gene assay; assay type: functional, Hepacivirus hominis; details: Huh-7, 72 h
[5] = Cytotoxicity against human HuH7 cells assessed as cell viability at 10 uM after 3 days by CellTiter Glo assay; assay type: cell-based, Huh-7; details: read-out: Activity
[6] = Cytotoxicity against human HuH7 cells assessed as cell viability after 3 days by CellTiter Glo assay; assay type: cell-based, Huh-7
[7] = Therapeutic index, ratio of CC50 for human HuH7 cells to EC50 for Hepatitis C virus genotype 1b; assay type: cell-based, Huh-7; details: read-out: Ratio CC50/EC50
Hepatitis C virus [8] = experiment: Antiviral activity at Hepatitis C virus genotype 1b infected in human HuH7 cells assessed as inhibition of viral replication after 3 days by renilla luciferase reporter gene assay; assay type: functional, organism-based, Hepacivirus hominis; details: Huh-7, 72 h
Hepacivirus hominis [9] = experiment: Inhibition of Hepatitis C virus NS5B delta 55 assessed as [3H][…] incorporation on a poly(A) template at 50 uM after 3 hrs by scintillation proximity assay
Hepacivirus hominis [10] = experiment: Inhibition of Hepatitis C virus NS5B delta 55 assessed as [3H][…] incorporation on a poly(A) template at 10 uM after 3 hrs by scintillation proximity assay
Hepatitis C virus [11] = experiment: Antiviral activity at Hepatitis C virus genotype 1b infected in human HuH7 cells assessed as inhibition of viral replication at 10 uM after 3 days by quantitative RT-PCR analysis; assay type: functional, Hepacivirus hominis; details: Huh-7, 72 h
Hepacivirus hominis [12] = experiment: Inhibition of Hepatitis C virus NS5B delta 55 assessed as [3H][…] incorporation on a poly(A) template at 1 uM after 3 hrs by scintillation proximity assay

With C[C@@]1(O)[C@H](O)[C@@H](CO)O[C@H]1n1cnc2c(N)ncnc21 the inhibition at 0.5 µM (Hepatitis C virus [1]) was 95%, the inhibition at 0.5 µM (Hepatitis C virus [2]) was 98% and the viability at 72 h, 0.5 µM [3] was 87%.
Molecule O=C(O)c1cn(CCO)c2cc(-c3ccco3)ccc2c1=O has an inhibition at 10 µM (Hepatitis C virus [4]) of 15% and a viability at 72 h, 10 µM [5] of 100%.
O=C(O)c1c[nH]c2ccc(-c3ccco3)cc2c1=O showed an inhibition at 10 µM (Hepatitis C virus [4]) of 0% and a viability at 72 h, 10 µM [5] of 100%.
Work on O=C(O)c1cn(CCO)c2ccc(I)cc2c1=O yielded an inhibition at 10 µM (Hepatitis C virus [4]) of 21% and a viability at 72 h, 10 µM [5] of 100%.
O=C(O)c1cn(CCCO)c2ccc(-c3cc4ccccc4o3)cc2c1=O gave a CC50 at 72 h [6] of 25 µM, a selectivity ratio [7] of 1.1 and an EC50 (Hepatitis C virus [8]) of 23 µM. For the same molecule, the inhibition at 10 µM (Hepatitis C virus [4]) was 44% and the viability at 72 h, 10 µM [5] was 100%.
O=C(O)c1cn(CCO)c2ccc(-c3cc4ccccc4s3)cc2c1=O gave a CC50 at 72 h [6] of 15 µM, a selectivity ratio [7] of 2.5 and an EC50 (Hepatitis C virus [8]) of 5.9 µM. For the same molecule, the inhibition (Hepacivirus hominis [9]) was “Active”, the inhibition at 10 µM (Hepatitis C virus [4]) was 58% and the viability at 72 h, 10 µM [5] was 100%. For the same molecule, the inhibition (Hepacivirus hominis [10]) was “Active”.
Work on O=C(O)c1cn(CCCO)c2cc(-c3cccs3)ccc2c1=O yielded an inhibition at 10 µM (Hepatitis C virus [4]) of 12% and a viability at 72 h, 10 µM [5] of 97%.
In the case of O=C(O)c1cn(CCO)c2ccc(-c3cc4ccccc4o3)cc2c1=O, the CC50 at 72 h [6] is reported as 34 µM, the selectivity ratio [7] is reported as 5.9 and the inhibition at 10 µM (Hepatitis C virus [11]) is reported as 70%. For the same molecule, the EC50 (Hepatitis C virus [8]) was 5.8 µM, the inhibition (Hepacivirus hominis [9]) was “inactive” and the inhibition at 10 µM (Hepatitis C virus [4]) was 63%. The viability at 72 h, 10 µM [5] was 100% and the inhibition (Hepacivirus hominis [10]) was “inactive”.
In the case of O=C(O)c1cn(CCO)c2cc(-c3cccs3)ccc2c1=O, the inhibition at 10 µM (Hepatitis C virus [4]) is reported as 14% and the viability at 72 h, 10 µM [5] is reported as 100%.
O=C(O)c1cn(CCO)c2ccc(-c3ccoc3)cc2c1=O showed an inhibition at 10 µM (Hepatitis C virus [4]) of 0% and a viability at 72 h, 10 µM [5] of 100%.
CC(=O)c1ccc(-c2ccc3c(c2)c(=O)c(C(=O)O)cn3CCO)s1 gave an inhibition at 10 µM (Hepatitis C virus [4]) of 0% and a viability at 72 h, 10 µM [5] of 100%.
Molecule O=C(O)c1cn(CCO)c2ccc(-c3cccs3)cc2c1=O has a CC50 at 72 h [6] of over 50 µM, a selectivity ratio [7] of over 1.4 and an EC50 (Hepatitis C virus [8]) of 36 µM. For the same molecule, the inhibition (Hepacivirus hominis [9]) was “Active”, the inhibition at 10 µM (Hepatitis C virus [4]) was 40% and the viability at 72 h, 10 µM [5] was 100%. The inhibition (Hepacivirus hominis [10]) was “Active”.
COc1ccc(-c2ccc3c(c2)c(=O)c(C(=O)O)cn3CCO)cc1 showed an inhibition at 10 µM (Hepatitis C virus [4]) of 0% and a viability at 72 h, 10 µM [5] of 95%.
In the case of O=C(O)c1cn(CCO)c2ccc(-c3ccco3)cc2c1=O, the inhibition at 10 µM (Hepatitis C virus [4]) is reported as 20% and the viability at 72 h, 10 µM [5] is reported as 100%.
NC(=O)c1ncn([C@@H]2O[C@H](CO)[C@@H](O)[C@H]2O)n1 [RIBAVIRIN] showed an inhibition at 10 µM (Hepatitis C virus [4]) of 44% and a viability at 72 h, 10 µM [5] of 92%.
In the case of N#Cc1cc(COc2cccc(C(=O)/C=C(\O)C(=O)O)c2)c(Cl)cc1Cl, the inhibition (Hepacivirus hominis [12]) is reported as “Active”.
Work on CCCn1cc(C(=O)O)c(=O)c2cc(-c3cc4ccccc4o3)ccc21 yielded an inhibition at 10 µM (Hepatitis C virus [4]) of 4% and a viability at 72 h, 10 µM [5] of 91%.
O=C(O)c1cn(CCO)c2cc(-c3cc4ccccc4o3)ccc2c1=O showed an inhibition at 10 µM (Hepatitis C virus [4]) of 14% and a viability at 72 h, 10 µM [5] of 94%.
Molecule O=C(O)c1cn(Cc2ccccc2)c2ccc(I)cc2c1=O has an inhibition at 10 µM (Hepatitis C virus [4]) of 0% and a viability at 72 h, 10 µM [5] of 99%.
O=C(O)c1c[nH]c2ccc(-c3cccs3)cc2c1=O gave an inhibition at 10 µM (Hepatitis C virus [4]) of 0% and a viability at 72 h, 10 µM [5] of 100%.
Work on O=C(O)c1cnc2ccc(I)cc2c1O yielded an inhibition at 10 µM (Hepatitis C virus [4]) of 22% and a viability at 72 h, 10 µM [5] of 100%.
